Paper PMC10951269, “5-HT_FAsTR: a versatile, label-free, high-throughput, fluorescence-based microplate assay to quantify serotonin transport and release” (Scientific Reports, 2024)
Where two headings read alike, the source gives them in different places.

Columns and labels:
hSERT mutant I172M [1] = settings: fluorescence assay; 10 µM 5-HT; N = 3
Protocol: (§1) For the uptake inhibition assay determining IC50 values, the pre-incubation solutions contained 12 increasing concentrations of an hSERT or OCT2 inhibitor. […] The change in fluorescence was determined 10 min after adding the incubation solution. […] The raw data was fitted to a non-linear fit in GraphPad Prism ([inhibitor] vs response (three parameters) for hSERT data and [inhibitor] vs response – variable slope (four parameters) for hOCT2 data) and normalized to the obtained top and bottom plateau as follows: rawdata-bottomplateau/topplateau-bottomplateau . The same non-linear fit of the normalized data was used to calculate logIC50 and IC50 values. IC50 values were converted to pKi values using the Cheng-Prusoff equation[33]. pKi=pIC50/1+[S]/Km

hSERT mutant I172M [2] = settings: radiotracer assay; 10 µM [3H]5-HT; N = 3
Protocol: The uptake was terminated by washing the cells with ice-cold PBSCM, 50 µl Microscint (Perkin Elmer) was added and radioactivity was counted in a TopCounter microplate scintillation counter approximately one hour after microscint addition. The raw data was fitted to a non-linear fit in GraphPad Prism ([inhibitor] vs response (three parameters)) and normalized to the obtained top and bottom plateau as follows: rawdata-bottomplateau/topplateau-bottomplateau . The same non-linear fit of the normalized data was used to calculate logIC50 and IC50 values.

hSERT [3] = target: T1, hSERT (Homo sapiens, UniProt P31645); experiment: 5-HT_FAsTR fluorescence efflux assay
Protocol: The efflux inducing drug was added at time point 0 and a time window showing efflux in the linear range was chosen for further analysis. The fluorescence intensity measured in response to the drug was normalized to the mean fluorescence intensity measured 2.5 min, 5 min and 7.5 min before the addition of the drug. A simple linear regression was performed with GraphPad Prism for the time window showing efflux in the linear range and the slope of the linear decrease in fluorescence in response to the drug was plotted against increasing drug concentrations. A non-linear fit ([Inhibitor] vs. response (three parameters), GraphPad Prism) was used to calculate EC50 as well as the top and bottom plateau. The drug-induced efflux was calculated by subtracting the top plateau from the bottom plateau.

iSeroSnFR = experiment: Dose-response of 5-HT binding to extracellular membrane-tethered iSeroSnFR; type: cell-based; settings: HEK293MSR cells, not saturated at 10 mM 5-HT
Text: Error bars represent SEM.
(2 pictures or pasted objects on this page, not shown here)

NCCc1c[nH]c2ccc(O)cc12 = experiment: cells, lysate or membranes; settings: other: HEK293MSR_iSeroSnFR cells with hSERT, 10 min, N = 7, pH 7.4
hOCT2 = target: T2, hOCT2 (Homo sapiens, UniProt O15244); experiment: 5-HT_FAsTR fluorescence uptake inhibition assay, hOCT2; type: cell-based; settings: corresponding to the pKi
T2 sequence (O15244 1-555): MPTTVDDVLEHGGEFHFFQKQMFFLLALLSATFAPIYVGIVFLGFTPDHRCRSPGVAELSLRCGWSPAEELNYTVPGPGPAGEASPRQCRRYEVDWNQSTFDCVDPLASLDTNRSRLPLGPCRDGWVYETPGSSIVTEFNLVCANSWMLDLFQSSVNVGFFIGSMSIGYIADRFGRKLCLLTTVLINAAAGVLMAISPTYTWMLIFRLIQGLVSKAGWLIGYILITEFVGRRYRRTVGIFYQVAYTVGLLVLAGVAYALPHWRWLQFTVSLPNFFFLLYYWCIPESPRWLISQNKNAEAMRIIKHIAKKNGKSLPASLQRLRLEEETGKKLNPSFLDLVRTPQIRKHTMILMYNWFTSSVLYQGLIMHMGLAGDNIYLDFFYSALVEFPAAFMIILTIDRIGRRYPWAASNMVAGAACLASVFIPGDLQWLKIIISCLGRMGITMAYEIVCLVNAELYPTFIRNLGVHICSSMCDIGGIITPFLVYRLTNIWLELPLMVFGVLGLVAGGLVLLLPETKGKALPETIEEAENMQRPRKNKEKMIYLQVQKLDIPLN
Protocol: as §1

hSERT [4] = target: T1, hSERT; type: cell-based; set-up: expressed in transfected cells; host or cells: HEK293MSR cells stably expressing cytoplasmic iSeroSnFR; settings: 5 µM inhibitor, control experiment
Text: Data were fitted in Graphpad Prism to the in-built model for Michaelis–Menten kinetics using robust non-linear regression to calculate Km and Vmax.

[5] = substrate: NCCc1c[nH]c2ccc(O)cc12; experiment: cells, lysate or membranes; settings: other: hOCT2-transfected cells; non-specific uptake determined with imipramine; N = 3; pH 7.4

T1 sequence (P31645 whole entry): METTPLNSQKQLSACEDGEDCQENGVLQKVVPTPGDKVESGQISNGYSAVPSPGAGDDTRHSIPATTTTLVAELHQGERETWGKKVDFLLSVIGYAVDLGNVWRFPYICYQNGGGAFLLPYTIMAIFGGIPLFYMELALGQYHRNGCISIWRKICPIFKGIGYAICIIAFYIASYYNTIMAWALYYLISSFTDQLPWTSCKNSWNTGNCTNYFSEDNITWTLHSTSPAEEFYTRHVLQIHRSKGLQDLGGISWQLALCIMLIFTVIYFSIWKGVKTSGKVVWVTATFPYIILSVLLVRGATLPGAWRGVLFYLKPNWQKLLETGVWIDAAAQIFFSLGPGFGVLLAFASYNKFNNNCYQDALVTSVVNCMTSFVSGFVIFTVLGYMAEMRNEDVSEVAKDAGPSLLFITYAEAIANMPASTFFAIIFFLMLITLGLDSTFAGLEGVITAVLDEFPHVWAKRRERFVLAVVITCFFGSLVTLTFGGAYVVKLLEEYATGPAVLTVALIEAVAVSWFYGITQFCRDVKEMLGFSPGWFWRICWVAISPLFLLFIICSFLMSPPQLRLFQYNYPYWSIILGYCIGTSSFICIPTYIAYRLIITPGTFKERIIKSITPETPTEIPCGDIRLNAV

Question: With CNC(C)Cc1ccc2c(c1)OCO2 (stereo not drawn) [MDMA] as the molecule, how does the “fold decrease in potency, hSERT I172M compared to wild type (IC50 ratio)” value (hSERT mutant I172M [1]) read?
Answer: Its value is “did not show any change”.

Question: And the “fold decrease in potency, hSERT I172M compared to wild type (IC50 ratio)” value (hSERT mutant I172M [2])?
Answer: Its value is “did not show any change”.

Question: And the EC50 (hSERT [3])?
Answer: Its EC50 is 6.22 ± 1.62 µM.

Question: What about the “fluorescence change ± SEM (drug-induced efflux rate)” value (hSERT [3]; hSERT not present (empty vector), preloaded with 5-HT, N = 3) of the same molecule?
Answer: Its value is 0.06 ± 0.01 %/minute.

Question: And the “maximum fluorescence change ± SEM (drug-induced efflux rate)” value (hSERT [3]; hSERT-transfected cells preloaded with 10 µM 5-HT, N = 6)?
Answer: Its value is 0.66 ± 0.13 %/minute.

Question: What about the “release of 5-HT relative to background levels from passive diffusion” value (hSERT [3]; hSERT-transfected cells vs background) of the same molecule?
Answer: Its value is “at least 11 fold”.

Question: With NCCc1c[nH]c2ccc(O)cc12 [5-HT, 5-hydroxytryptamine] as the molecule, how does the EC50 (iSeroSnFR) read?
Answer: The EC50 was ≥ 1520 µM.

Question: hSERT (Homo sapiens) was tested. Which Km (NCCc1c[nH]c2ccc(O)cc12; non-specific uptake determined with MJ1-53) did it give?
Answer: The Km was 1.25 ± 0.48 µM.

Question: And the Km (NCCc1c[nH]c2ccc(O)cc12; non-specific uptake determined with S-Citalopram)?
Answer: The Km was 1.79 ± 0.19 µM.

Question: Which Ki (hOCT2) does the source give for C[Se+](C)CCCN1c2ccccc2CCc2ccc(Cl)cc21 [MJ1-53] here?
Answer: Its Ki is 0.164 µM.

Question: What about the “effect of blocking the serotonin transporter on 5-HT uptake (fluorescence intensity)” value (hSERT [4]) of the same molecule?
Answer: The value was “abolishes 5-HT uptake”.

B1: hOCT2 (Homo sapiens) (protein)
chain: MPTTVDDVLEHGGEFHFFQKQMFFLLALLSATFAPIYVGIVFLGFTPDHRCRSPGVAELSLRCGWSPAEELNYTVPGPGPAGEASPRQCRRYEVDWNQSTFDCVDPLASLDTNRSRLPLGPCRDGWVYETPGSSIVTEFNLVCANSWMLDLFQSSVNVGFFIGSMSIGYIADRFGRKLCLLTTVLINAAAGVLMAISPTYTWMLIFRLIQGLVSKAGWLIGYILITEFVGRRYRRTVGIFYQVAYTVGLLVLAGVAYALPHWRWLQFTVSLPNFFFLLYYWCIPESPRWLISQNKNAEAMRIIKHIAKKNGKSLPASLQRLRLEEETGKKLNPSFLDLVRTPQIRKHTMILMYNWFTSSVLYQGLIMHMGLAGDNIYLDFFYSALVEFPAAFMIILTIDRIGRRYPWAASNMVAGAACLASVFIPGDLQWLKIIISCLGRMGITMAYEIVCLVNAELYPTFIRNLGVHICSSMCDIGGIITPFLVYRLTNIWLELPLMVFGVLGLVAGGLVLLLPETKGKALPETIEEAENMQRPRKNKEKMIYLQVQKLDIPLN
Question: Which Km [5] does the source give for B1 here?
Answer: The Km was 183.6 ± 65.18 µM.
